Results from patent US8003783B2, “17B-hydroxysteroid dehydrogenase inhibitors” (Sterix Limited, priority 2004, dated 2011).
pIC50: −log10 of the molar value. Read-outs that look alike come from different tables or passages of the source.

How the values were obtained:
[1] = target: T1, 17β-HSD1 (Homo sapiens, UniProt P14061); assay: 17β-HSD Type I activity in T-47D cells (E1→E2); format: cell-based; conditions: for inhibition at 10 µM: T47D
T1 construct: was measured in intact cell monolayers of T47D and MDA-MB-231 breast cancer cells respectively; endogenous in cells; host or cells: T-47D human breast cancer cells
T1 sequence (P14061 1-328): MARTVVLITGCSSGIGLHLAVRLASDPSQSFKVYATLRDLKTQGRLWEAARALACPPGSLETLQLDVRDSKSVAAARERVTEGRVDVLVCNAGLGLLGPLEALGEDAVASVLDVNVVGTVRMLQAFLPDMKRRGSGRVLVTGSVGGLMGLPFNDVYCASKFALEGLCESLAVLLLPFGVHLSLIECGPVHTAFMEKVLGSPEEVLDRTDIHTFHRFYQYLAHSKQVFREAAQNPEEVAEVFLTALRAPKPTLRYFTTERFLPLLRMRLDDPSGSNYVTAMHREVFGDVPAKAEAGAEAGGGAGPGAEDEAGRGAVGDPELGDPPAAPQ

[2] = target: T2, 17β-HSD2 (Homo sapiens, UniProt P37059); assay: 17β-HSD Type II activity in MDA-MB-231 cells (E2→E1); format: cell-based
T2 construct: was measured in intact cell monolayers of T47D and MDA-MB-231 breast cancer cells respectively; endogenous in cells; host or cells: MDA-MB-231 human breast cancer cells
T2 sequence (P37059 1-387): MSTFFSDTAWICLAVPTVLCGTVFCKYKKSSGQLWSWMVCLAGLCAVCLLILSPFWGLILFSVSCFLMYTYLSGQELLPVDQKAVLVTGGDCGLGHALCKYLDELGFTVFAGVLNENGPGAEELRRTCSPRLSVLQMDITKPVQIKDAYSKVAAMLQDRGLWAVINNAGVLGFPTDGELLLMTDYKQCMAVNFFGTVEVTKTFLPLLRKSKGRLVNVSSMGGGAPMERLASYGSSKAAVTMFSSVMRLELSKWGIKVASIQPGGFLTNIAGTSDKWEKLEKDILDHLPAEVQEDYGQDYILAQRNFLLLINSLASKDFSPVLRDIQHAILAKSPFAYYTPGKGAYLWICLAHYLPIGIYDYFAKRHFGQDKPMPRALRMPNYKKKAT

[3] = 10 μM, T-47D cells, E1→E2, read-out: % inhibition of 17β-HSD1 @ 10 μM
[4] = 10 μM, MDA-MB-231 cells, E2→E1, read-out: % inhibition of 17β-HSD2 @ 10 μM
[5] = T-47D cells, E1→E2, read-out: IC50 (17β-HSD1)
[6] = read-out: % inhibition of 17β-HSD1 @ 10 μM, 10 μM, T-47D cells, E1→E2
[7] = MDA-MB-231, read-out: % inhibition of 17β-HSD2 @ 10 μM

Compound	inhibition at 10 µM [1, 3] [%]	inhibition at 10 µM [2, 4] [%]	pIC50 [1]	pIC50 [1, 5]	inhibition at 10 µM [1, 6] [%]	inhibition at 10 µM [2, 7] [%]
COC(=O)C1CC2C3CCc4cc(O)ccc4C3CC[C@]2(C)[C@H]1O (stereo partly shown) [compound 572]	63	2				
CCOC(=O)CC1CC2C3CCc4cc(O)ccc4C3CC[C@]2(C)C1=O (stereo partly shown) [compound 573]	97	18	6.52			
CCOC(=O)CC1CC2C3CCc4cc(O)ccc4C3CC[C@]2(C)[C@H]1O (stereo partly shown) [compound 574]	67	18				
CN(C)c1ccc(CC2CC3C4CCc5cc(O)ccc5C4CC[C@]3(C)[C@H]2O)cc1 (stereo partly shown) [compound 594, 16-(4-Dimethylamino-benzyl)-13-methyl-7,8,9,11,12,13,14,15,16,17-decahydro-6H-cyclopenta[a]phenanthrene-3,17-diol]	41	25				
C[C@]12CCC3c4ccc(O)cc4CCC3C1CC(CC(=O)O)[C@@H]2O (stereo partly shown) [compound 603]	58	0				
C[C@]12CCC3C4CC=C(O)C=C4CCC3C1CC(CC(=O)O)C2=O (stereo partly shown) [compound 604]	13	-5				
C[C@]12CCC3c4ccc(O)cc4CCC3C1CC(C(=O)O)C2=O (stereo partly shown) [compound 610]	95	1		6.03		
C[C@]12CCC3c4ccc(O)cc4CCC3C1CC(C(=O)O)[C@@H]2O (stereo partly shown) [compound 611]	39	4				
C[C@]12CCC3c4ccc(O)cc4CCC3C1CC(CO)[C@@H]2O (stereo partly shown) [compound 612]	86	17				
CC(C)/C=C1\CC2C3CCc4cc(O)ccc4C3CC[C@]2(C)[C@H]1O (stereo partly shown) [compound 614]	68	7				
C[C@]12CCC3c4ccc(O)cc4CCC3C1Cc1cccnc12 (stereo partly shown) [compound 663]	78	34				
CCOCC1CC2C3CCc4cc(O)ccc4C3CC[C@]2(C)C1=O (stereo partly shown) [compound 664]	92	19	6.49			
CCC(O)C1CC2C3CCc4cc(O)ccc4C3CC[C@]2(C)C1=O (stereo partly shown) [compound 665]	80	-18				
C[C@]12CCC3c4ccc(O)cc4CCC3C1CC(CC(=O)NCc1ccco1)[C@@H]2O (stereo partly shown) [compound 667]	35	14				
C[C@]12CCC3c4ccc(O)cc4CCC3C1CC(CC(=O)NCC1CCCO1)[C@@H]2O (stereo partly shown) [compound 668]	63	25				
C[C@]12CCC3c4ccc(O)cc4CCC3C1CC(CC(=O)NCc1ccccn1)C2=O (stereo partly shown) [compound 669]					82	7
C[C@]12CCC3c4ccc(O)cc4CCC3C1CC(CC(=O)NCc1cccnc1)C2=O (stereo partly shown) [compound 670]	95	26		7.48		
C[C@]12CCC3c4ccc(O)cc4CCC3C1CC(CC(=O)NCC1CCCO1)C2=O (stereo partly shown) [compound 671]	91	21		6.42		
C[C@]12CCC3c4ccc(O)cc4CCC3C1CC(CC(=O)NCc1ccco1)C2=O (stereo partly shown) [compound 672]					85	3
C[C@]12CCC3c4ccc(O)cc4CCC3C1CC(C(=O)NCc1ccco1)[C@@H]2O (stereo partly shown) [compound 679]	87	-9				
CN(C)CCCNC(=O)CC1CC2C3CCc4cc(O)ccc4C3CC[C@]2(C)C1=O (stereo partly shown) [compound 688]	36	13				
COCCNC(=O)CC1CC2C3CCc4cc(O)ccc4C3CC[C@]2(C)C1=O (stereo partly shown) [compound 689]	53	8				

Compound	inhibition at 10 µM [1, 3] [%]	inhibition at 10 µM [2, 4] [%]	pIC50 [1]	pIC50 [1, 5]	inhibition at 10 µM [1, 6] [%]	inhibition at 10 µM [2, 7] [%]
C[C@H](NC(=O)CC1CC2C3CCc4cc(O)ccc4C3CC[C@]2(C)C1=O)c1ccccc1 (stereo partly shown) [compound 690]	83	10				
C[C@]12CCC3c4ccc(O)cc4CCC3C1CC(CC(=O)NCCc1ccccn1)C2=O (stereo partly shown) [compound 691]	58	14				
COc1cc(/C=C2\CC3C4CCc5cc(OS(N)(=O)=O)ccc5C4CC[C@]3(C)C2=O)cc(OC)c1OC (stereo partly shown) [compound 692]	4	17				
COc1cc(/C=C2\CC3C4CCc5cc(OS(N)(=O)=O)ccc5C4CC[C@]3(C)[C@H]2O)cc(OC)c1OC (stereo partly shown) [compound 693]	13	10				
C[C@]12CCC3c4ccc(O)cc4C(=O)CC3C1Cc1c[nH]nc12 (stereo partly shown) [compound 737, 2-Hydroxy-6a-methyl-5,6,6a,8,10,10a,10b,11-octahydro-4bH-7,8-diazo-pentaleno[2,1-a]phenanthren-12-one]	96	-9		6.34		
CCN(C)C(=O)CC1CC2C3CCc4cc(O)ccc4C3CC[C@]2(C)C1=O (stereo partly shown) [compound 741]	79	5				
CCN(CC)C(=O)CC1CC2C3CCc4cc(O)ccc4C3CC[C@]2(C)C1=O (stereo partly shown) [compound 742]	82	2				
CC(C)NC(=O)CC1CC2C3CCc4cc(O)ccc4C3CC[C@]2(C)C1=O (stereo partly shown) [compound 743]	75	6				
CCNC(=O)CC1CC2C3CCc4cc(O)ccc4C3CC[C@]2(C)C1=O (stereo partly shown) [compound 744]	84	2				
CNC(=O)CC1CC2C3CCc4cc(O)ccc4C3CC[C@]2(C)C1=O (stereo partly shown) [compound 745]	90	3.5		5.82		
C[C@]12CCC3c4ccc(O)cc4CCC3C1CC(CC(=O)Nc1nccs1)C2=O (stereo partly shown) [compound 746]	30	16				
CC(C)(C)/C=C1\CC2C3CCc4cc(O)ccc4C3CC[C@]2(C)C1=O (stereo partly shown) [compound 748]	82	31				
CCO/C=C1/CC2C3CC(=O)c4cc(O)ccc4C3CC[C@]2(C)C1=O (stereo partly shown) [compound 749]	85	8				
CCN(C)C(=O)CC1CC2C3CCc4cc(O)ccc4C3CC[C@]2(C)[C@H]1O (stereo partly shown) [compound 771]	78	16				
CCN(CC)C(=O)CC1CC2C3CCc4cc(O)ccc4C3CC[C@]2(C)[C@H]1O (stereo partly shown) [compound 772]	79	14				
CC(C)NC(=O)CC1CC2C3CCc4cc(O)ccc4C3CC[C@]2(C)[C@H]1O (stereo partly shown) [compound 773]	67	11				
CCNC(=O)CC1CC2C3CCc4cc(O)ccc4C3CC[C@]2(C)[C@H]1O (stereo partly shown) [compound 774]	76	13				
CNC(=O)CC1CC2C3CCc4cc(O)ccc4C3CC[C@]2(C)[C@H]1O (stereo partly shown) [compound 775]	63	11				
C[C@]12CCC3c4ccc(O)cc4CCC3C1CC(C(=O)NCC1CCCO1)[C@@H]2O (stereo partly shown) [compound 779]	82	11				
COC(=O)C1(CN2C(=O)c3ccccc3C2=O)CC2C3CCc4cc(O)ccc4C3CC[C@]2(C)C1=O (stereo partly shown) [compound 780]	71	17				
CCOC(=O)c1[nH]nc2c1CC1C3CCc4cc(O)ccc4C3CC[C@]21C (stereo partly shown) [compound 782]	94	7		5.73		
